From patent US11040035B2, “3-oxo-2,6-diphenyl-2,3-dihydropyridazine-4-carboxamides” (BAYER PHARMA AKTIENGESELLSCHAFT, priority 2016, dated 2021) come the findings set out here.

In test [1] the target is T1, AHR (Homo sapiens, UniProt P35869).
T1 sequence (P35869 11-848): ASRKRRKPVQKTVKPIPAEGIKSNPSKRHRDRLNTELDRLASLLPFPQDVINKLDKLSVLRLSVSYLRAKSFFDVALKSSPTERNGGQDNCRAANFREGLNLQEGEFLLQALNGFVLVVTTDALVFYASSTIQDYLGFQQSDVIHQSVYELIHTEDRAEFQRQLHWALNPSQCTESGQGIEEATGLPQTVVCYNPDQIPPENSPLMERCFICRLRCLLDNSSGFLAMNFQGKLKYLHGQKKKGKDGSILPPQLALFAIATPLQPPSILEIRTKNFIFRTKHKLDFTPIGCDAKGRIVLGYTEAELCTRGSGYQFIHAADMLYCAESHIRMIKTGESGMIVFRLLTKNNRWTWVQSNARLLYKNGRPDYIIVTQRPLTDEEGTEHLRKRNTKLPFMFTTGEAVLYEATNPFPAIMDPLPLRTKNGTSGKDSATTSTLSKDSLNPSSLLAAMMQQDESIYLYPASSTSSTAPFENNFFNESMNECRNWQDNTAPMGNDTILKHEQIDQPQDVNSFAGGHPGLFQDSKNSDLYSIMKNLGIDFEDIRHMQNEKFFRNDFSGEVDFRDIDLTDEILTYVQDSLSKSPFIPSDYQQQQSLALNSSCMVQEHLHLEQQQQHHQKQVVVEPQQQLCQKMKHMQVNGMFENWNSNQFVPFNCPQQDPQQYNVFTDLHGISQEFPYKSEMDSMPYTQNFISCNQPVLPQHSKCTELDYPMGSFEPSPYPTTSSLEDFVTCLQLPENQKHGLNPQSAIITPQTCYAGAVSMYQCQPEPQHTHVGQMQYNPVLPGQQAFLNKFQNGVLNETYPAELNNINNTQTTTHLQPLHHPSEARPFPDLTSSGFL
The conditions noted are these: 20 h.

Test [2] deals with T1, AHR. Briefly: In vitro assay 1: antagonism in human cell line (transactivation assay, kynurenic acid prestimulated). The conditions noted are these: Assay 1: AHR-luc Hum Antagonism IC50 [M], 150 μM kynurenic acid, 20 hours, firefly luciferase.
The test system of the next test is CT26 tumor cells. Kind of test: In vivo assay: efficacy of example compound and PD-1-L1 axis antagonist in CT26 tumor model. The note with it: female Balb/c mice, CT26 s.c.; example 23 30 mg/kg BID p.o.; aPD-L1 (TPP-3911) 10 mg/kg q3d i.p.; treatment from day 5.
The target in test [3] is T1, AHR. Kind of test: In vitro assay 2: agonism in human cell line (transactivation assay). The conditions noted are these: Assay 2: AHR-luc Hum Agonism IC50 [M], no kynurenic acid, 20 hours, firefly luciferase.
Test [4] deals with AHR-regulated gene CYP1A1. Briefly: In vitro assay 3: AHR-regulated CYP1A1 expression in human cell line (U937, qPCR). The note with it: Homo sapiens, U-937, 6 h, read-out: Assay 3: Hum CYP1A1 Antagonism IC50 [M], U937 cells, 200 μM KA, 6 hours, qPCR. (Quantitative PCR measures a nucleic acid by following its amplification.)
Test [5] concerns TNFa production by LPS-stimulated human monocytes. Briefly: In vitro assay 4: rescue of TNFa production from human primary monocytes. The conditions noted are these: Homo sapiens, Monocyte, 18 h, human monocytes, 10 ng/mL LPS + 200 μM KA, 18 hours; highest percent TNFa rescue relative to highest rescue with GNF-351; one value per donor; read-out: Individual Donors % rescue TNFa normalised to ref cmpd. The format is cell-based. As for the experimental part:
In Vitro Assay 4: Rescue of TNFa Production from Human Primary Monocytes
The ability of the substances to enhance immune cell activity was determined. The substances were tested for their capacity to reverse KA-induced inhibition of TNFa production by LPS-stimulated human monocytes. Human monocytes were purified by negative selection from donor PBMCs using Miltenyi beads and seeded at 2×10^5 cells/well in complete growth medium (RPMI 1640, 10% FCS). Monocytes were incubated with 10 ng/mL LPS (0127:68, #L4516, Sigma) and 200 μM KA (#3375, Sigma) and substances were added at concentrations of 1 μM, 0.3 μM and 0.1 μM and cultured for 18 hours. LPS alone served as the positive control. TNFa production in the supernatant was measured by Meso Scale Discovery immunassay and the ability of the substances to rescue TNFa production was calculated as a percentage of LPS stimulation and KA-induced inhibition and normalized to the donor-specific response with the reference AHR antagonist compound GNF-351 (Smith et al., J Pharmacol Exp Ther, 2011, 338(1):318-27).

The structures appear in SMILES notation. Like-named read-outs stand apart in the source and are kept apart here. A value given as a limit tells only on which side of the number the result lay.

From the text for CT26 tumor cells: In Vivo Assay: Efficacy of Compositions Comprising an Example Compound and a PD-1-L1 Axis Antagonist
Animals were ordered from Charles River Sulzfeld, Germany and assigned to the study at the age of 8 weeks. Animal husbandry, feeding and health conditions are according to animal welfare guidelines. CT26 cells (aquired from ATCC) were cultivated with RPMI 1640 with 10% FCS and splitted at least 3 times before inoculation. Female Balb/c mice were inoculated with 500.000 CT26 tumor cells in 50% medium/50% matrigel subcutaneously in the flank. After 4 days the animals were randomized and therapeutic treatment started on day 5.
The anti-PDL1 antibody is a chimera of the variable domain of atezolizumab with murine IgG1 CH1, 2 and 3 domains.
Tumor size was measured using calipers determining length (a) and width (b). Tumor volume was calculated according to:
Significance of monotherapies and combination treatment was calculated versus control group as determined by 2-Way ANOVA analysis.
After 4 days the animals were randomized and therapeutic treatment started on day 5. […] Significance of monotherapies and combination treatment was calculated vs. control group as determined by 2-Way ANOVA analysis.

In the case of `Cc1ccc(-c2cc(C(=O)NCC(O)C(F)(F)F)c(=O)n(-c3cc(F)cc(F)c3)n2)cc1` (single isomer, unassigned) [Example 54, 2-(3,5-Difluorophenyl)-6-(4-methylphenyl)-3-oxo-N-(3,3,3-trifluoro-2-hydroxypropyl)-2,3-dihydropyridazine-4-carboxamide], the IC50 was greater than 20 µM at AHR [1] and 4.07e-08 M against AHR [2].
Take `C[C@@H](CO)NC(=O)c1cc(-c2ccc(Cl)cc2)nn(-c2cccc(F)c2)c1=O` [Example 23, 6-(4-Chlorophenyl)-2-(3-fluorophenyl)-N-[(2S)-1-hydroxypropan-2-yl]-3-oxo-2,3-dihydropyridazine-4-carboxamide]: in the test with CT26 tumor cells, the “T/C, ratio of tumor size under treatment versus tumor size in the control group” value is 0.75. For the same compound, the values for the IC50 (against AHR [3]; in test [4]; against AHR [2]) were greater than 2e-05 M, 7.07e-08 M and 3.99e-08 M, respectively.
As for `O=C(NCC1(O)CCCCC1)c1cc(-c2ccc(Cl)cc2)nn(-c2cccc(F)c2)c1=O` [Example 129, 6-(4-Chlorophenyl)-2-(3-fluorophenyl)-N-[(1-hydroxycyclohexyl)methyl]-3-oxo-2,3-dihydropyridazine-4-carboxamide], the Emax in test [5] is 30%. For the same compound, the 50% inhibitory concentration (IC50) is greater than 2e-05 M against AHR [3], 6e-07 M in test [4] and 4.52e-07 M against AHR [2].
As for `CC[C@@H](CO)NC(=O)c1cc(-c2ccc(Cl)c(F)c2)nn(-c2cccc(F)c2)c1=O` [Example 288, 6-(4-Chloro-3-fluorophenyl)-2-(3-fluorophenyl)-N-[(2S)-1-hydroxybutan-2-yl]-3-oxo-2,3-dihydropyridazine-4-carboxamide], in test [5], the Emax turned out to be 82%. For the same compound, the IC50 is greater than 2e-05 M against AHR [3], 8.05e-08 M in test [4] and 3.97e-08 M at AHR [2].
In the case of `C[C@@H](CO)NC(=O)c1cc(-c2ccc(Cl)c(Cl)c2)nn(-c2cccc(F)c2)c1=O` [Example 300, 6-(3,4-Dichlorophenyl)-2-(3-fluorophenyl)-N-[(2S)-1-hydroxypropan-2-yl]-3-oxo-2,3-dihydropyridazine-4-carboxamide], the Emax in test [5] was determined as 122%. Further, the figures for the IC50 (against AHR [3]; in test [4]; against AHR [2]) were greater than 2e-05 M, 1.07e-07 M and 1.19e-07 M, respectively.
With `CC(C)[C@@H](CO)NC(=O)c1cc(-c2ccc(Cl)c(Cl)c2)nn(-c2cccc(F)c2)c1=O` [Example 301, 6-(3,4-Dichlorophenyl)-2-(3-fluorophenyl)-N-[(2S)-1-hydroxy-3-methylbutan-2-yl]-3-oxo-2,3-dihydropyridazine-4-carboxamide], in test [5], the Emax was 112%. The IC50 against AHR [3] is greater than 2e-05 M; in test [4], 8.1e-08 M; against AHR [2] it was 2.73e-08 M.

As a reminder, the IC50 is the concentration that inhibits the measured activity by half.
